One assay addresses T1, binding of CARD and LPS (Homo sapiens, UniProt P49662, M1C).
T1 construct: three types of cysteine-inserted CARD(1-80) variants (Cys-His-CARD, His-Cys-CARD (M1C-CARD), and His-CARD-Cys); His6 (N); made in house; host or cells: E. coli CLEARCOLI BL21(DE3)
T1 sequence (P49662 1-80 M1C): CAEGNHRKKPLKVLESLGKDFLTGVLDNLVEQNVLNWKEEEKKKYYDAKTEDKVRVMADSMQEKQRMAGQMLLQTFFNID
In words: FP competition assay of hit compounds. As to conditions: compound 50 μM to 0.022 μM, 6.4 μM LPS-Ra, 50 nM tracer, buffer C, 37° C. 1 hour. As to the method:
In detail, the FP competition assay was performed by mixing 50 nM of tracer, 6.4 μM of LPS-Ra, and 3-fold serially diluted hit compound (50 μM to 0.022862 μM) in buffer C. The mixture was incubated at 37° C. for 1 hour before measurement. FP values were expressed as a function of compound concentrations, and IC50 values were obtained from a sigmoidal curve fit, as analyzed in GRAPHPAD PRISM 8.

Assay [1] can be described thus: FP binding assay of ALEXA FLUOR 488-CARD and LPS. As to conditions: for effect of additive on binding of CARD and LPS: buffer C with 0.1 mg/mL BSA, 0.01% NP-40, or 1 mM MC (MgCl2+CaCl2), 37° C. 1 hour. As to the method: Fluorescence polarization (FP) was measured with an APPLISKAN microplate reader (ThermoFisher) using 485 nm excitation and 535 nm emission filters. The FP value was calculated according to the following equation: FP (mP)=1000×(Is−G×Ip)/(Is+G×Ip). In the equation, Is represents a parallel (equivalent) emission intensity, Ip represents a perpendicular emission intensity, and G represents a lattice coefficient 0.877.
FP binding assay was performed by adding 200 μL of a reaction mixture to each well of a black 96-well plate (SPL Life Sciences). The reaction mixture includes 50 nM ALEXA FLUOR 488-CARD (tracer) with increasing concentrations of LPS-Ra (in the range of 0 μM to 12.8 μM, a molecular weight of LPS-Ra is assumed to be 3,835 g/mole, Sigma-Aldrich) in a buffer C or an indicated buffer. The reaction mixture was incubated at 37° C. for 30 minutes to 4 hours before reaction. FP values are expressed as a function of LPS-Ra concentration. FP binding curves of His-Cys-CARD (ALEXA FLUOR 488-CARD) or ALEXA FLUOR 488 alone (dye) with respect to the concentrations of LPS are shown in FIG. 2E.
Apparent equilibrium dissociation constants (Kd^app) were calculated from the nonlinear regression curve fit, as analyzed in GRAPHPAD PRISM 8 from the FP binding curves.
An FP binding curve from FP values measured with buffer C (50 mM Tris-HCl pH 7.0, 150 mM NaCl) supplemented with additives such as 0.1 mg/mL BSA, 0.01% NP-40, or 1 mM MC (MgCl2+CaCl2) is shown in FIG. 3A. An FP binding curve from FP values measured by incubating ALEXA FLOUR 488-CARD serially diluted with buffer C for 0.5 hours to 4 hours is shown in FIG. 3B (grey area: range of 20 nM to 50 nM). An FP binding curve from FP values measured by incubating different concentrations of LPS-Ra in buffer C for 0.5 hours to 4 hours is shown in FIG. 3D. An FP binding curve from FP values measured with buffer C supplemented with different concentrations of DMSO is shown in FIG. 3E. In addition, LPS-Ra concentration-dependent Z′ factor was evaluated in buffer C supplemented with 0% to 10% DMSO. […]

A short description of assay [2]: Tryptophan fluorescence spectrometry of Casp-4 constructs binding to LPS. To be noted: for Kd: 1 μM protein, LPS-Ra 0 μM to 50 μM, HBS-E buffer, 37° C. 30 minutes, fluorescence intensity at 334 nm, read-out: apparent equilibrium dissociation constant (Kd^app). As to the method: Apparent dissociation constants were measured by tryptophan fluorescence spectrometry. […] Apparent dissociation constant values were calculated by analyzing the fluorescence emission spectra.
Fluorescence spectra were obtained with a FluoroMate FS-2 fluorescence spectrophotometer (Sinco) equipped with a quartz cuvette with a 5 mm path length. 1 μM of the recombinant protein was mixed with increasing concentrations of LPS-Ra (in the range of 0 μM to 50 μM) in an HBS-E buffer (10 mM HEPES pH 7.5, 150 mM NaCl, 3 mM EDTA), and incubated at 37° C. for 30 minutes. The sample was excited at 280 nm, and emission spectra at 300 nm to 500 nm were recorded with an excitation/emission slit width of 2.5/5 nm, respectively. The fluorescence intensity of the sample was corrected by subtracting the background intensity of LPS alone. A difference in the fluorescence intensity at 334 nm was expressed as a function of LPS-Ra concentration, and the apparent equilibrium dissociation constant (Kd^app) was calculated from the nonlinear regression curve fit, as analyzed in GRAPHPAD PRISM 8. Graphs showing the emission spectra of the tryptophan residue in full-length C258A-Casp-4, CARD, and ΔCARD-C258A-Casp-4 in LPS-Ra (0 μM to 50 μM) are shown in FIG. 1B.

The nature of assay [3]: Surface plasmon resonance (SPR) of Casp-4 constructs on immobilized LPS. The assay is classed as binding, E. coli. To be noted: for Kd: 25° C., NH-LPS O55:B5 on CM5 chip, HBS-E, read-out: dissociation constant. As to the method: In addition, the binding affinity between Casp-4 and LPS was determined by a surface plasmon resonance (SPR) experiment. The SPR experiment was performed at 25° C. using a BIACORE T200 (Cytiva). A filtered and degassed running buffer (HBS-E) was prepared prior to use. Amine-derived LPS O55:B5 (NH-LPS, Sigma-Aldrich) was prepared by a method described in P. T. Wong et al., J Mater Chem B, 2015, 3, 1149-1156, herein incorporated by reference. NH-LPS was immobilized on a CM5 sensor chip (Cytiva) using an amine coupling method (480 RU), and blocked with 1 M ethanolamine (pH 8.5). Purified proteins of the indicated concentration were injected, and the resulting sensorgrams were analyzed using a BIACORE T200 Evaluation software.

Changes are numbered by the printed parent chain. In names and notes the source's numbering stands.

`CN(C)c1ccc(C(=C2C=CC(=[N+](C)C)C=C2)c2ccc(N(C)C)cc2)cc1` [C-5, Crystal violet]: the “IC50 (FP signal decrease, concentration-dependent)” value at binding of CARD and LPS is “μM level”.

For the molecule `O=C1c2c(O)ccc(O)c2C(=O)c2c(NCCNCCO)ccc(NCCNCCO)c21` [C-6, Mitoxantrone], the “IC50 (FP signal decrease, concentration-dependent)” value at binding of CARD and LPS is “μM level”.

On to `CCOc1ccc2nc3cc(N)ccc3c(N)c2c1` [C-8, Ethacridine lactate], for which the “IC50 (FP signal decrease, concentration-dependent)” value at binding of CARD and LPS is given as “μM level”.

On to `CC1=NN(c2ccc(C)c(C)c2)C(=O)/C1=N\Nc1cccc(-c2cccc(C(=O)O)c2)c1O` [C-11, Eltrombopag Olamine], for which, on binding of CARD and LPS, the “IC50 (FP signal decrease, concentration-dependent)” value was “μM level”.

With `Cn1cc(C2=C(c3cn(C4CCN(Cc5ccccn5)CC4)c4ccccc34)C(=O)NC2=O)c2ccccc21` [C-13, Enzastaurin], the “IC50 (FP signal decrease, concentration-dependent)” value at binding of CARD and LPS is reported as “μM level”.

Take `CN1CCN(c2nc(C3=C(c4c[nH]c5ccccc45)C(=O)NC3=O)c3ccccc3n2)CC1` [C-15, Sotrastaurin]: the “IC50 (FP signal decrease, concentration-dependent)” value at binding of CARD and LPS is given as “μM level”.

For the molecule `Cc1cc(Nc2ncc(Cl)c(Nc3ccccc3S(=O)(=O)C(C)C)n2)c(OC(C)C)cc1C1CCNCC1` [C-16, Ceritinib], the “IC50 (FP signal decrease, concentration-dependent)” value at binding of CARD and LPS was “μM level”.

In the case of `CN1CCN(c2ccc(C(=O)Nc3n[nH]c4ccc(Cc5cc(F)cc(F)c5)cc34)c(NC3CCOCC3)c2)CC1` [C-19, Entrectinib], at binding of CARD and LPS, the “IC50 (FP signal decrease, concentration-dependent)” value is listed as “μM level”.

Regarding NP-40, in assay [1], the “effect of additive on binding of CARD and LPS” value is “inhibited”.

With bovine serum albumin [BSA], the “effect of additive on binding of CARD and LPS” value in assay [1] is “inhibited”.

B1: ΔCARD-C258A-Casp-4: CARD truncated Casp-4 (81-377, C258A modification) (protein, UniProt P49662 81-377, looked up, fragment C258A)
chain: QISPNKKAHPNMEAGPPESGESTDALKLCPHEEFLRLCKERAEEIYPIKERNNRTRLALIICNTEFDHLPPRNGADFDITGMKELLEGLDYSVDVEENLTARDMESALRAFATRPEHKSSDSTFLVLMSHGILEGICGTVHDEKKPDVLLYDTIFQIFNNRNCLSLKDKPKVIIVQAARGANRGELWVRDSPASLEVASSQSSENLEEDAVYKTHVEKDFIAFCSSTPHNVSWRDSTMGSIFITQLITCFQKYSWCCHLEEVFRKVQQSFETPRAKAQMPTIERLSMTRYFYLFPGN
Turning to B1, the “binding to LPS” value in assay [2] (tryptophan fluorescence, FIG. 1B) is “not identified”; in assay [3] (FIG. 1C) it was “not identified”.

B2: C258A-Casp-4: Catalytically inactive full-length Casp-4 (1-377, C258A modification) (protein, UniProt P49662 1-377, looked up, variant C258A)
chain: MAEGNHRKKPLKVLESLGKDFLTGVLDNLVEQNVLNWKEEEKKKYYDAKTEDKVRVMADSMQEKQRMAGQMLLQTFFNIDQISPNKKAHPNMEAGPPESGESTDALKLCPHEEFLRLCKERAEEIYPIKERNNRTRLALIICNTEFDHLPPRNGADFDITGMKELLEGLDYSVDVEENLTARDMESALRAFATRPEHKSSDSTFLVLMSHGILEGICGTVHDEKKPDVLLYDTIFQIFNNRNCLSLKDKPKVIIVQAARGANRGELWVRDSPASLEVASSQSSENLEEDAVYKTHVEKDFIAFCSSTPHNVSWRDSTMGSIFITQLITCFQKYSWCCHLEEVFRKVQQSFETPRAKAQMPTIERLSMTRYFYLFPGN
modifications: full-length
B2: the values for the Kd in assay [2] and in assay [3] were 5300 ± 500 nM and 2400 nM, respectively.

B3: CARD: caspase activation and recruitment domain of Casp-4, residues 1-80, His6 tag at the N-terminus (protein)
chain: T1 sequence (P49662 1-80 M1C) with C1M
modifications: N-terminal His6 tag; Caspase-4 CARD polypeptide
Regarding B3, the figures for the Kd in assay [2] and in assay [3] were 6500 ± 800 nM and 2100 nM, respectively.

B4: ALEXA FLOUR 488-CARD: ALEXA FLUOR 488-labeled His-Cys-CARD (M1C-CARD), tracer for FP assays (conjugate, UniProt P49662 1-80, looked up, fragment M1C)
chain: T1 sequence (P49662 1-80 M1C)
modifications: CARD Alexa Fluor 488 label; His tag
notes: ALEXA FLUOR 488-labeled His-Cys-CARD (M1C-CARD), tracer for FP assays
B4: in assay [1] (50 nM ALEXA FLOUR 488-CARD, LPS-Ra 0 μM to 12.8 μM, buffer C, 37° C., read-out: Kd^app), the Kd was 2200 ± 200 nM.

The values above are taken from US11926860B2, “Method of screening inhibitor of caspase activity by lipopolysaccharide” (KOREA INSTITUTE OF SCIENCE AND TECHNOLOGY, priority 2021, dated 2024).
